We go through 26 compounds from patent US7960561B2, “2-(phenylamino) benzimidazole derivatives and their use as modulators of small-conductance calcium-activated potassium channels” (Neurosearch A/S, priority 2005, dated 2011).

Molecules are shown by their SMILES. Counter-ions that a name gives are not always drawn.

Regarding `FC(F)(F)c1cc(Nc2nc3ccccc3[nH]2)ccc1Cl` (as salt: hydrochloride) [Example 2, N-(Benzimidazol-2-yl)-4-chloro-3-(trifluoromethyl)aniline], the melting point (in general, the temperature of the solid-liquid transition) was 255 to 260 °C. As for `N#Cc1cccc(Nc2nc3ccccc3[nH]2)c1` [Example 23, N-(Benzoimidazol-2-yl)-3-cyanoaniline], the figure is 272 to 274 °C; as for `FC(F)(F)c1ccc(Nc2nc3ccccc3[nH]2)cc1` [Example 4, N-(Benzimidazol-2-yl)-4-(trifluoromethyl)aniline], 199 to 200 °C. The compound `FC(F)(F)c1cc(Nc2nc3ccccc3[nH]2)cc(C(F)(F)F)c1` (as salt: hydrochloride) [Example 13, N-(Benzimidazol-2-yl)-3,5-bis(trifluoromethyl)aniline] displayed a melting point of 245 to 246 °C.

Turning to `Fc1cc(Nc2nc3ccccc3[nH]2)cc(C(F)(F)F)c1` (as salt: hydrochloride) [Example 18, N-(Benzimidazol-2-yl)-3-fluoro-5-(trifluoromethyl)aniline], the melting point was 263 to 265 °C. As for `Fc1cc(F)cc(Nc2nc3ccccc3[nH]2)c1` (as salt: hydrochloride) [Example 9, N-(Benzimidazol-2-yl)-3,5-difluoroaniline], the figure is 292 to 293 °C. As for `Clc1cc(Cl)cc(Nc2nc3ccccc3[nH]2)c1` (as salt: hydrochloride) [Example 15, N-(Benzimidazol-2-yl)-3,5-dichloroaniline], the figure is 317 to 318 °C; as for `Cc1ccc(Nc2nc3ccccc3[nH]2)cc1C(F)(F)F` (as salt: hydrochloride) [Example 17, N-(Benzimidazol-2-yl)-4-methyl-3-(trifluoromethyl)aniline], above 265 °C.

In turn, `Cc1cc(Nc2nc3ccccc3[nH]2)ccc1F` (as salt: hydrochloride) [Example 12, N-(Benzimidazol-2-yl)-4-fluoro-3-methylaniline] came in with a melting point of 246 to 248 °C. As for `FC(F)(F)Oc1ccc(Nc2nc3ccccc3[nH]2)cc1` (as salt: hydrochloride) [Example 6, N-(Benzimidazol-2-yl)-4-(trifluoromethoxy)aniline], the figure is 250 to 251 °C.

The compound `FC(F)(F)c1cccc(Nc2nc3ccccc3[nH]2)c1` [Example 10, N-(Benzimidazol-2-yl)-3-(trifluoromethyl)aniline] gave a melting point of 160 to 162 °C. `Fc1ccc(Nc2nc3ccccc3[nH]2)cc1Cl` (as salt: hydrochloride) [Example 14, N-(Benzimidazol-2-yl)-3-chloro-4-fluoroaniline] had a melting point of 306 to 307 °C. As for `CC(C)c1ccc(Nc2nc3ccccc3[nH]2)cc1` [Example 25, N-(Benzoimidazol-2-yl)-4-isopropylaniline], the figure is 179 to 180 °C.

Take `Fc1c(Nc2nc3ccccc3[nH]2)cccc1C(F)(F)F` [Example 20, N-(Benzimidazol-2-yl)-2-fluoro-3-(trifluoromethyl)aniline]: the melting point was in the range of 91 to 92 °C. As for `Cc1c(Nc2nc3ccccc3[nH]2)cccc1C(F)(F)F` [Example 19, N-(Benzimidazol-2-yl)-2-methyl-3-(trifluoromethyl)aniline], the figure is 204 to 206 °C; as for `Clc1ccc(Nc2nc3ccccc3[nH]2)cc1` (as salt: hydrochloride) [Example 1, N-(Benzimidazol-2-yl)-4-chloroaniline], 238 to 240 °C. As for `Fc1ccc(Nc2nc3ccccc3[nH]2)cc1F` (as salt: hydrochloride) [Example 8, N-(Benzimidazol-2-yl)-3,4-difluoroaniline], the melting point lay in the range of 283 to 284 °C. `Fc1ccc(Nc2nc3ccccc3[nH]2)cc1` (as salt: hydrochloride) [Example 7, N-(Benzimidazol-2-yl)-4-fluoroaniline] had a melting point of 215 to 216 °C. The compound `Clc1cccc(Nc2nc3ccccc3[nH]2)c1` (as salt: hydrochloride) [Example 5, N-(Benzimidazol-2-yl)-3-chloroaniline] came in with a melting point of 252 to 257 °C. `c1ccc(-c2ccccc2Nc2nc3ccccc3[nH]2)cc1` [Example 28, N-(Benzoimidazol-2-yl)-2-phenylaniline] yielded a melting point of 152 to 154 °C.

In the case of `CN(c1ccc(Cl)c(Cl)c1)c1nc2ccccc2[nH]1` (as salt: hydrochloride) [Example 22, N-(Benzoimidazol-2-yl)-N-methyl-3,4-dichloroaniline], the melting point is above 275 °C. As for `FC(F)(F)c1cc(Nc2nc3ccccc3[nH]2)ccc1Br` (as salt: hydrochloride) [Example 16, N-(Benzimidazol-2-yl)-4-bromo-3-(trifluoromethyl)aniline], the figure is 262 to 264 °C; as for `Fc1ccc(Nc2nc3ccccc3[nH]2)c(F)c1F` [Example 21, N-(Benzimidazol-2-yl)-2,3,4-trifluoroaniline], 182 to 183 °C. As for `COc1cc(Nc2nc3ccccc3[nH]2)cc(C(F)(F)F)c1` (as salt: hydrochloride) [Example 24, N-(Benzoimidazol-2-yl)-3-methoxy-5-(trifluoromethyl)aniline], the figure is 212 to 213 °C; as for `Fc1ccc(Nc2nc3ccccc3[nH]2)cc1C(F)(F)F` (as salt: hydrochloride) [Example 11, N-(Benzimidazol-2-yl)-4-fluoro-3-(trifluoromethyl)aniline], 255 to 257 °C; as for `Clc1ccc(Nc2nc3ccccc3[nH]2)cc1Cl` (as salt: hydrochloride) [Example 3, N-(Benzimidazol-2-yl)-3,4-dichloroaniline], above 270 °C.
